The text below walks through data of patent US12440571B2, “Immune agonists” (SHENZHEN UNIVERSITY, priority 2020, dated 2025).

The structures appear in SMILES notation.

For orientation: IC50 means the point on the concentration scale where inhibition reaches its midpoint.

Holding throughout (assay type): cell-based
Assay [1] deals with human leukemia HL-60 cells. Kind of assay: CCK8 growth inhibition, HL60. Conditions: Homo sapiens, HL-60, CCK8 method; read-out: IC50 of inhibitory activity on tumor cell growth, HL60.
Assay [2] deals with Murine breast cancer 4T1 cells. Put plainly: CCK8 growth inhibition, 4T1. To be noted: Mus musculus, CCK8 method, 24 hrs (or 36, 72 hrs), read-out: IC50 of inhibitory activity on tumor cell growth, 4T1. Here is the method:
Murine breast cancer 4T1 cells (Kailian Biotech, KG338) in a logarithmic growth phase were selected and washed with PBS, digested with 0.25% trypsin (including EDTA), stopped digestion with a DMEM complete medium, then centrifuged, and resuspended to form a suspension of 4T1 single cells. Cells were counted using a hemocytometer and a cell concentration was calculated. A DMEM complete medium was used to adjust the cell suspension to a target concentration, and thereafter, the cells were plated on a 96-well cell culture plate according to 4×10^3/100 μL per well. After adherering to the wall, the 4T1 cells were stimulated according to the designed concentration gradients of the series of GY compounds or drugs, with each concentration being provided with 3 replicate holes. The 96-well cell culture plate with 4T1 cells seeded and dosing was placed in the cell incubator, and incubated at 37° C., 5% carbon dioxide for 24 hrs (or 36, 72 hrs). After the incubation time was over, 10 μL of CCK8 reagent was added to each well and incubated for 1-2 hrs at 37° C. A full-wavelength microplate reader was adopted to test an OD value at 450 nm wavelength.
CCK8 calculation formula is as follows: • Cell survival rate (100%)=[…]/(Ac−Ab)×100% • As: Absorbance of wells containing cells, CCK8 solution, and drug solution • Ac: Absorbance of wells containing cells and CCK8 solution, and no drug solution • Ab: Absorbance of wells containing CCK8 solution, no cells, and no drug solution
Cell growth inhibition rate (%)=1−((OD value of experimental group−OD value of blank group)/(OD value of control group−OD value of blank group)×100%).

A further assay has as its system A549. Kind of assay: CCK8 growth inhibition, A549. Conditions: Homo sapiens, CCK8 method, read-out: IC50 of inhibitory activity on tumor cell growth, A549. A general note: Tetrazolium dyes change colour on reduction, which living cells bring about.
The test system of another assay is MB231. Kind of assay: CCK8 growth inhibition, MB231. To be noted: CCK8 method; read-out: IC50 of inhibitory activity on tumor cell growth, MB231.

On to `CCCCOc1nc(N)c2nc(O)n(Cc3cn(CCOCCOCCOCCN4CCN(CCCNC(=O)CC5N=C(c6ccc(Cl)cc6)c6c(sc(C)c6C)-n6c(C)nnc65)CC4)nn3)c2n1` (stereo not shown) [GY118], for which the half-maximal inhibitory concentration (IC50) in assay [1] was 15.1 µM; in assay [2] it was 14.7 µM; in the assay on A549 it was 16.6 µM; in the assay on MB231 it was 5.8 µM.
